Laboratory results reported in patent publication US20040161813A1, “Structure of beta-ketoacyl-[acyl carrier protein] synthases complexed with inhibitors and methods of use thereof” (St. Jude Children's Research Hospital, priority 2000, published 2004).
“Also recorded” adds a separate entry of the source. Read-outs that look alike come from different tables or passages of the source.

Columns and labels:
[1] = target: T1, E. coli FabF (β-ketoacyl-ACP synthase II) (Escherichia coli, UniProt P0AAI5); assay: FabF radiochemical condensing enzyme assay with myristoyl-ACP; type: biochemical
T1 construct: made in house
Description: (§1) FabB and FabF radiochemical assay was performed using the scheme devised by Garwin et al. (11) using myristoyl-ACP as the substrate. The assays contained 100 μM ACP, 0.3 mM dithiothreitol, 1 mM EDTA, 0.1 M potassium phosphate buffer, pH 6.8, 50 μM [^14C]malonyl-CoA (specific activity 55 Ci/mole), 100 μM myristoyl-ACP, FabD (0.3 μg of protein), in a final volume of 20 μl. A mixture of ACP, 0.3 mM DTT, 1 mM EDTA, and the buffer was incubated at 37° C. for 30 min to ensure complete reduction ACP, and then the remaining components (except the condensing enzyme) were added. The mixture was then aliquoted into the assay tubes and the reaction was initiated by the addition of FabB or FabF. The reaction mixture was incubated at 37° C. for 20 min, then 400 μl of reducing agent (0.1 M K2HPO4, 0.4 M KCl, 30% tetrahydrofuran, and 5 mg/ml sodium borohydride) was added into the reaction tubes and incubated for 40 min.
(§2) Finally, 400 μl of toluene was added, vigorously mixed, and 300 μl of upper phase solution was counted in 3 ml of scintillation cocktail.

[2] = target: T2, E. coli FabB (β-ketoacyl-ACP synthase I) (Escherichia coli, UniProt P0A953); assay: FabB radiochemical condensing enzyme assay with myristoyl-ACP; type: biochemical
T2 construct: made in house; host or cells: pET-15b-FabB expression vector; Novagen expression strains
Description: as §1, §2

[3] = target: T3, E. coli FabH (β-ketoacyl-ACP synthase III) (Escherichia coli, UniProt P0A6R0); assay: FabH filter disc assay with [1-14C]acetyl-CoA; type: biochemical
T3 construct: made in house
Description: A filter disc assay was used to assay FabH activity with [1-^14C]acetyl-CoA as described previously (15,18). The assays contained 100 μM ACP, 1 mM β-mercaptoethanol, 45 μM [^14C]acetyl-CoA (specific activity, 52.0 Ci/mole), and 50 μM malonyl-CoA, E. coli FabD (0.3 μg) and 0.1 M sodium phosphate buffer (pH 7.0) in a final volume of 40 μl. The reaction was initiated by the addition of FabH and the mixture was incubated at 37° C. for 12 min. A 35-μl aliquot was removed and deposited on a Whatman 3MM filter disc. The discs were washed with three changes (20 ml/disc for 20 min) of ice-cold trichloroacetic acid. The concentration of the trichloroacetic acid was reduced from 10 to 5 to 1% in each successive wash. The filters were dried and counted in 3 ml of scintillation cocktail.

FabB[H333N] = target: T4, FabB[H333N] (Escherichia coli, UniProt P0A953, H333N); assay: FabB[H333N] mutant radiochemical assay with 14:0-ACP primer; type: biochemical; settings: inhibition by cerulenin
T4 construct: made in house; host or cells: pET-15b-FabB expression vector; Novagen expression strains
T4 sequence (P0A953 1-406 H333N): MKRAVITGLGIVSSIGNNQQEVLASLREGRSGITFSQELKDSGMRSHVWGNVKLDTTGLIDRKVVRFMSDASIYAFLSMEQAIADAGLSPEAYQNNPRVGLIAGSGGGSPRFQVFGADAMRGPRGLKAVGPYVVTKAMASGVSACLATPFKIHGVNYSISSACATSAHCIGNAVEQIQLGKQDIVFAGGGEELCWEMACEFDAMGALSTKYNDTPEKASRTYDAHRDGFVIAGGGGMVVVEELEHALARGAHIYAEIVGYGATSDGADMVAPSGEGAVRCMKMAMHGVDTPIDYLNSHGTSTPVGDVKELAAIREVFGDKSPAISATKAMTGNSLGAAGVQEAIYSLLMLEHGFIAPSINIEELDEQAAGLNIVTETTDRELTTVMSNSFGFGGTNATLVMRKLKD
Description: as §1, §2
Construction of the FabB[H333N] mutant—A portion of the fabB gene was amplified using the polymerase chain reaction with two specific primers. The first primer introduced the desired mutation, and extended over a unique AgeI site (5′-[…]-3′, SEQ ID NO:3). The second primer created a BamHI site downstream of the stop codon (5′-[…]-3′, SEQ ID NO:4). […]

FabB = target: T5, FabB (Escherichia coli, UniProt P0A953); assay: Time course of FabB inhibition (reversibility); type: biochemical; settings: for Reversibility of FabB inhibition: 20 μM TLM or 3 μM cerulenin, with or without 30 min preincubation
T5 construct: made in house; host or cells: pET-15b-FabB expression vector; Novagen expression strains
Description: The time course for the inhibition of FabB activity under five experimental conditions was determined to address the reversibility of the antibiotics. Time course for the FabB reaction in the absence of inhibitors (▾), in the presence of 20 μM TLM (●) or 3 μM cerulenin (∘). FabB was preincubated with either 20 μM TLM (▪) or 3 μM cerulenin (□) for 30 min prior to initiation of the reaction by the addition of the other substrates. FabB activity was measured using the radiochemical assay with myristoyl-ACP as the substrate as described under “Experimental Procedures” in the Example below.
as §1, §2
This hypothesis was examined by comparing the kinetics of TLM inhibition to that of cerulenin (FIG. 2), which is known to form a covalent complex with the active site cysteine of the condensing enzymes. […] This indicates the formation of the irreversible FabB-cerulenin binary complex. The same two types of time course experiments were performed with TLM (FIG. 2A).

B. subtilis FabF = B. subtilis FabF (Bacillus subtilis, UniProt O34340); assay: Inhibition of B. subtilis FabF in vitro; type: biochemical
[4] = cited from earlier work
[5] = system: urinary tract and intraperitoneal bacterial infections; settings: mice; cited from earlier work

T5 sequence (P0A953 whole entry): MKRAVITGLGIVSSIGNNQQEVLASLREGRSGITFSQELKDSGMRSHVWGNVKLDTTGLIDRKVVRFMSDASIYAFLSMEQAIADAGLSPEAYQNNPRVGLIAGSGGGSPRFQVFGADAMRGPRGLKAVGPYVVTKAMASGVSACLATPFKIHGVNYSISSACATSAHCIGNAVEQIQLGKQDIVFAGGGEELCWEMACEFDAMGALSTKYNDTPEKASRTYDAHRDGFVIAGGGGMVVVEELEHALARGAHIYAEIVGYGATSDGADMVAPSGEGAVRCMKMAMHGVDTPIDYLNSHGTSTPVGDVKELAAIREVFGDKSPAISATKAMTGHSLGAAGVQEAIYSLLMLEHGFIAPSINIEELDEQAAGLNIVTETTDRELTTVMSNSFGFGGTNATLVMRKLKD
T3 sequence (P0A6R0 whole entry): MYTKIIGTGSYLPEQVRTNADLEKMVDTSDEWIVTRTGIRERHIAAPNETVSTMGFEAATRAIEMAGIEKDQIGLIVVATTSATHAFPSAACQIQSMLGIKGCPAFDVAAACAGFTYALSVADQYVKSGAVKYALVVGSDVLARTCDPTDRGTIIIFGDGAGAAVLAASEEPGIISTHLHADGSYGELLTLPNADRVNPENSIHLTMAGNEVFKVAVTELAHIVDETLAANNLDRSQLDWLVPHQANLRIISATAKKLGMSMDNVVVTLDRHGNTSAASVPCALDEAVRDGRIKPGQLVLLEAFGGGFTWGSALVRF
T1 sequence (P0AAI5 whole entry): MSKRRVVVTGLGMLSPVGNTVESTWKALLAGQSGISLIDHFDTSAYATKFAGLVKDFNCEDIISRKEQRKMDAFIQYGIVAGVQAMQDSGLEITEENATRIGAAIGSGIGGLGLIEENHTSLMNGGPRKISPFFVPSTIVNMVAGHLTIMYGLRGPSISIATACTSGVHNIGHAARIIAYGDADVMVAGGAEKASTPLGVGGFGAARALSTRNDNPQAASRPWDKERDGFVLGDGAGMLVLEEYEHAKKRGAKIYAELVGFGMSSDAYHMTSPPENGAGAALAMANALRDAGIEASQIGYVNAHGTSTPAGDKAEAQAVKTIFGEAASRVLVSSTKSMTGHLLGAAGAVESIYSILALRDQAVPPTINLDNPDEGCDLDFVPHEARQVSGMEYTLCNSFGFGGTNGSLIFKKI
T2 sequence (P0A953 whole entry): as the sequence (P0A953 whole entry) above
Sequence of B. subtilis FabF (O34340 whole entry): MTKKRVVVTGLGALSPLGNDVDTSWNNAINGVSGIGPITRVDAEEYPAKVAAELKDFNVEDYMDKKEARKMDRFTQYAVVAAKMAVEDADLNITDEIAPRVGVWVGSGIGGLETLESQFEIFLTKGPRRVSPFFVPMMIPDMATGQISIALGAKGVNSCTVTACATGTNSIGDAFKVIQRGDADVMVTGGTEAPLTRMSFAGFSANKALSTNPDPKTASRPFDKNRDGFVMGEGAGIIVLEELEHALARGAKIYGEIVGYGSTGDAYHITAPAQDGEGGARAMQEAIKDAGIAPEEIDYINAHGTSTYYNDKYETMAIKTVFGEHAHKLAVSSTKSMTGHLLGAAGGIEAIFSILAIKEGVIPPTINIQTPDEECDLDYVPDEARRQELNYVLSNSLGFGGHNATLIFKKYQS

| SMILES | IC50 ([1]; purified E. coli enzyme, myristoyl-ACP substrate, read-out: IC50 FabF) | IC50 ([2]; purified E. coli enzyme, myristoyl-ACP (14:0-ACP) substrate, read-out: IC50 FabB) | Sensitivity of FabH to inhibitor [3] | IC50 ([3]; purified E. coli enzyme, acetyl-CoA primer, read-out: IC50 FabH) | IC50 (FabB[H333N]) | Product formation after preincubation of inhibitor with FabB (FabB; 3 μM cerulenin preincubated 30 min, reaction initiated with substrates) | Reversibility of FabB inhibition (FabB) | IC50 [1] | IC50 [2] | IC50 [3] | Inhibition of B. subtilis FabF in vitro (B. subtilis FabF) | Toxicity to mice [4] | Protection against urinary tract and intraperitoneal bacterial infections [5] |
| --- | --- | --- | --- | --- | --- | --- | --- | --- | --- | --- | --- | --- | --- |
| C/C=C/C/C=C/CCC(=O)[C@H]1O[C@H]1C(N)=O [cerulenin, (2R,3S)-2,3-epoxy-4-oxo-7,10-dodecandienolyamide] | 20 µM | 3 µM | essentially resistant | > 700 µM | 30 µM | no discernable product formation | slow-binding, irreversible inhibitor; also recorded: irreversibly inhibited |  |  |  |  |  |  |
| C=C/C(C)=C/C1(C)SC(=O)C(C)=C1O (stereo in doubt) [TLM, (4S)(2E,5E)-2,4,6-trimethyl-3-hydroxy-2,5,7-octatriene-4-thiolide] |  |  |  |  |  |  | reversible inhibitor; also recorded: reversibly inhibited | 6 µM | 25 µM | 110 µM | very weak inhibitor | not toxic | significant protection |
